Measurements taken from patent publication US20030049709A1, “Programmed cell death and Ich-3” (priority 1996, published 2003).

Legend:
thymocytes = experiment: Thymocyte apoptosis under other apoptotic stimuli; type: cell-based, mice; conditions: Ich-3 mutant thymocytes; dexamethasone 1 μM; 10 nM PMA and 500 nM Ca2+ ionophore
Procedure: Thymocytes are sensitive to several apoptotic stimuli such as irradiation and dexamethasone (Cohen, J. J., et al., Annu. Rev. Immunol. 10:267-293 (1992)). To determine if apoptosis of thymocytes is affected by a mutation in the Ich-3 locus, Ich-3−/− thymocytes were examined for defects in apoptosis using a variety of apoptotic induction signals. Thymocytes isolated from 6-7 week old, wild-type and Ich-3 mutant mice were treated with 500 rads of y-irtadiation, or dexamethasone (1(IM, or 10 nM phorbol myristate acetate (PMA) and 500 nM Ca^2+ ionophore, and cell viability was examined 10 hr or 24 hr after treatment by using FCAS analysis after staining with propidine iodine. (Schwartz, et al., “Cell Death—Methods in Cell Biology.” vol. 46, Academic Press).

[1] = target: ICH-3 protein (mouse) (mouse) (UniProt P70343)
[2] = tested on: poly(ADP-ribose) polymerase (PARP) cleavage; conditions: cited from earlier work
[3] = tested on: apoptosis in an cell-free system; conditions: read-out: concentration to cause 50% inhibition of apoptosis; cited from earlier work
embryonic fibroblasts = experiment: Granzyme/perforin induced apoptosis of embryonic fibroblasts (Hoechst dye); type: cell-based, mice; conditions: Ich-3−/− EF cells; up to 0.8 μg/ml granzyme with 50 ng/ml perforin
Procedure: FIGS. 9A-9B. Ich-3 deficient EF cells are resistant to Granzyme B and Granzyme 3 induced apoptosis. Embryonic fibroblasts from Ich-3−/− and wild type controls were treated with varying concentrations of granzyme B (FIG. 9A) or granzyme 3 (FIG. 9B) in the presence of a constant amount of perforin (50 ng/ml) for a period of 2 and 8 hrs, respectively. The percentage of apoptosis cells was determined from cell counts after staining with Hoechst dye (Chen et al., 1995). Control wells contained cells alone incubated with or without perforin. Data points represent the percentage of apoptotic cells for a particular dilution of granzyme minus the percentage of apoptotic cells observed in medium alone.
Granule serine protease (GraB) derived from cytotoxic T lymphocytes (CTL) can induce apoptosis in the presence of the pore forming protein perforin (Shi et al., J. Exp. Med. 176:1521-1529 (1992)). To determine the role of ICH-3 in apoptosis induced by GraB, the ability of Ich-3−/− embryonic fibroblasts (EF) to undergo apoptosis following treatment with GraB or Granzyme 3 (Gra3) and perforin was examined. Embryonic fibroblasts from Ich-3−/− mice and wild type littermate controls were treated with varying concentrations of GraB or Gra3 in the presence of a constant amount of perforin (50 ng/ml) for a period of 2 and 8 hrs, respectively.

His-tagged ICH-3 protein = target: T1, His-tagged ICH-3 protein (Mus musculus, UniProt P70343); experiment: In vitro cleavage assay of ICH-3 by GraB (Western blot); type: biochemical; conditions: 20 ng GraB, 30° C., 1 hour, 10 mM DTT
T1 construct: An EcoRI fragment from the cDNA clone BSNO12 encoding the full length Ich-3 was subdloned into EcoRI site of pTrcHis (Invitrogen); polyhistidine (six histidines) (N); made in house; host or cells: E. coli
T1 sequence (P70343 81-373): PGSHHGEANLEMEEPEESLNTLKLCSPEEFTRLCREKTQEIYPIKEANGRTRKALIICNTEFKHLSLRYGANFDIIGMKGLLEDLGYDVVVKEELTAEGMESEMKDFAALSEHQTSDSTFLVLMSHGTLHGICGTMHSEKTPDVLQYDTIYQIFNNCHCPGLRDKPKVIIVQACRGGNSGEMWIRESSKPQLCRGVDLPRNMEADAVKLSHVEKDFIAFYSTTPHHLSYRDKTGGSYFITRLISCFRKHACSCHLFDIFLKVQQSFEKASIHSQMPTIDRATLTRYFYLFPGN
Procedure: FIG. 5. Cleavage of ICH-3 protein by granzyme B. 10 μg His-tagged ICH-3 protein purified from E. coli was incubated with 20 ng of GraB in the presence of 10 mM DTT at 30° C. for 1 hour. The result was detected by Western blotting with a peptide antibody against p20 portion of ICH-3.
For in vitro cleavage of ICH-3 by GraB, […] purified His-tagged ICH-3 protein was incubated with 20 ng of GraB in the presence of 50 mM Tris-HCl, pH 7.5, 0.5 mM EDTA, 0.5 mM Sucrose and 10 mM DTT in a total volume of 10 μl. The mixture was incubated at 30° C. for 1 hour and the cleavage was detected by Western blotting with a peptide antibody against the p20 portion of ICH-3.
To examine whether GraB can cleave ICH-3, a His-tagged ICH-3 protein was expressed in E. coli. His-tagged ICH-3 protein purified from bacteria was mixed with or without active GraB and incubated at 30° C. for 1 hour. The cleavage products were identified by Western blot with a peptide antibodies against the p20 or a monoclonal antibody against p10 portion of ICH-3. As show in FIG. 5, the fulll length ICH-3 band disappeared after incubation with GraB: a new 20 kDa band appeared which is detected by an anti-ICH-3 p20 antibody and a new 10 kDa band which is recognized by a monoclonal antibody against p10 of ICH-3. […] Fragments around 30 kDa are the predicted sizes of the cleavages at Asp 59 and Asp 80. […]

Molecule: phorbol myristate acetate [PMA and Ca^2+ ionophore]
- resistance of thymocytes to induced apoptosis (thymocytes): not resistant

Molecule: granzyme B (enzyme)
- percentage of apoptotic embryonic fibroblasts (Hoechst dye) after GraB and perforin [1]: 40%

Molecule: Ac-DEVD-CHO
- dose inhibiting PARP cleavage [2]: 1 nM
- IC50 [3]: 1000 nM

Molecule: GraB: granule serine protease required for the cytotoxic activity of lymphocytes
- apoptosis of EF cells (embryonic fibroblasts): only baseline levels of apoptosis
- cleavage of ICH-3 (His-tagged ICH-3 protein): can cleave ICH-3 into p20 and p10

B1: Gra3: Granzyme 3 (protein, UniProt P49863 27-264, looked up)
Granzyme K: IIGGKEVSPHSRPFMASIQYGGHHVCGGVLIDPQWVLTAAHCQYRFTKGQSPTVVLGAHSLSKNEASKQTLEIKKFIPFSRVTSDPQSNDIMLVKLQTAAKLNKHVKMLHIRSKTSLRSGTKCKVTGWGATDPDSLRPSDTLREVTVTVLSRKLCNSQSYYNGDPFITKDMVCAGDAKGQKDSCKGDSGGPLICKGVFHAIVSGGHECGVATKPGIYTLLTKKYQTWIKSNLVPPHTN
- apoptosis of EF cells (embryonic fibroblasts): only baseline levels of apoptosis
